System: S. epidermidis ATCC 12228
Test: ASTM E1153 sanitizer test on inoculated glass carriers
Assay type: cell-based, staphylococcus epidermidis
Method: As used herein, “CFU” refers to “colony forming unit;” the term “Log Reduction” means Log(B/A), where B=the colony form unit (CFU) number of viable test microorganisms on the control carriers after the contact time and A=the colony form unit (CFU) number of viable test microorganisms on the test carriers after the contact time. All log numbers are base-10 logarithms. […] The experiment was conducted pursuant to the American Society for Testing and Materials (ASTM) E1153, a quantitative test method designed to substantiate sanitizer claims for disinfectants on inanimate, non-porous, non-food contact surfaces. […] The commercial acne products were categorized based on their identified disinfecting ingredient. The representative test microorganism used to conduct the study was staphylococcus epidermidis (“S. epidermidis”). S. epidermidis is a gram-positive, cocci-shaped, facultative anaerobe, living mainly on the skin's surface and mucosa. S. epidermidis is one of the most common organisms contributing to nosocomial infections due to the increase in medical usage of biomaterials. Specifically, S. epidermidis infections are associated with intravascular devices (prosthetic heart valves, shunts, etc.), prosthetic joints, catheters, and postoperative wounds and the urinary tract. […] The ASTM […] protocol includes growing the test microorganism in a liquid culture medium. A series of hard, non-porous glass slides (“carriers”) are inoculated with the representative test microorganisms, and subsequently dried in an incubator. ASTM […] utilizes non-antimicrobial agents as controls to establish baselines for microbial reductions. For this study, each inoculation area was kept to a 10 mm circle to match the output tip of the […] light source. Once completely dried, the inoculated test carriers were treated with the test substances and incubated for the predetermined contact time. […] Each […] light source was set to the high power setting for testing. Control carriers were treated with a buffered saline solution and allowed to sit for the predetermined contact time. At the conclusion of the contact time, treated carriers were transferred to vessels containing neutralizing media. Dilutions of the neutralized test substance were assayed for microbial survivors using appropriate growth media. To determine microbial reduction, the effect of the test substance is compared to the effect of the control substance. […] The percent reduction is determined by evaluating the number of microorganisms on the control carriers after the contact time with the number of viable microorganisms on the test carriers after contact time.

[1] = stand-alone, no light, contact time 10 Seconds, Initial Numbers 1.4E+05
[2] = stand-alone, no light, contact time 20 Seconds, Initial Numbers 1.4E+05
[3] = stand-alone, no light, contact time 30 Seconds, Initial Numbers 1.4E+05
[4] = with Synederm Light (385-515 nm), contact time 10 Seconds, Numbers Control 2.97E+05, listed as 3.0% Hydrogen Peroxide
[5] = with Synederm Light (385-515 nm), contact time 30 Seconds, Numbers Control 2.97E+05, listed as 3.0% Hydrogen Peroxide
[6] = with Synederm Light (385-515 nm), contact time 60 Seconds, Numbers Control 2.97E+05, listed as 3.0% Hydrogen Peroxide
[7] = with Synederm Light (420-480 nm), contact time 10 Seconds, Numbers Control 2.97E+05, listed as 3.0% Hydrogen Peroxide
[8] = with Synederm Light (420-480 nm), contact time 30 Seconds, Numbers Control 2.97E+05, listed as 3.0% Hydrogen Peroxide
[9] = with Synederm Light (420-480 nm), contact time 60 Seconds, Numbers Control 2.97E+05, listed as 3.0% Hydrogen Peroxide
[10] = with Synederm Light (385-515 nm), contact time 10 Seconds, Numbers Control 2.97E+05
[11] = with Synederm Light (385-515 nm), contact time 30 Seconds, Numbers Control 2.97E+05
[12] = with Synederm Light (385-515 nm), contact time 60 Seconds, Numbers Control 2.97E+05
[13] = with Synederm Light (420-480 nm), contact time 10 Seconds, Numbers Control 2.97E+05
[14] = with Synederm Light (420-480 nm), contact time 30 Seconds, Numbers Control 2.97E+05
[15] = with Synederm Light (420-480 nm), contact time 60 Seconds, Numbers Control 2.97E+05

OO [3% Hydrogen Peroxide, hydrogen peroxide]
CFU/Carrier [1]: 7.50E+04 CFU/Carrier
Log10 Reduction Compared to Control [1]: 0.27 Log10
Percent Reduction Compared to Control [1]: 46.4%
CFU/Carrier [2]: 8.00E+04 CFU/Carrier
Log10 Reduction Compared to Control [2]: 0.24 Log10
Percent Reduction Compared to Control [2]: 42.9%
CFU/Carrier [3]: 6.30E+04 CFU/Carrier
Log10 Reduction Compared to Control [3]: 0.35 Log10
Percent Reduction Compared to Control [3]: 55%
CFU/Carrier [4]: 5.80E+04 CFU/Carrier
Log10 Reduction Compared to Control [4]: 0.71 Log10
Percent Reduction Compared to Control [4]: 80.4%
CFU/Carrier [5]: 1.34E+03 CFU/Carrier
Log10 Reduction Compared to Control [5]: 2.34 Log10
Percent Reduction Compared to Control [5]: 99.5%
CFU/Carrier [6]: <1.00E+01 CFU/Carrier
Log10 Reduction Compared to Control [6]: >4.55 Log10
Percent Reduction Compared to Control [6]: >99.997%
CFU/Carrier [7]: 2.19E+04 CFU/Carrier
Log10 Reduction Compared to Control [7]: 1.13 Log10
Percent Reduction Compared to Control [7]: 92.6%
CFU/Carrier [8]: 6.20E+03 CFU/Carrier
Log10 Reduction Compared to Control [8]: 1.68 Log10
Percent Reduction Compared to Control [8]: 97.9%
CFU/Carrier [9]: <1.00E+01 CFU/Carrier
Log10 Reduction Compared to Control [9]: >4.55 Log10
Percent Reduction Compared to Control [9]: >99.997%
ASTM International passing criteria (3 Log10 or 99.9% reduction) (with Synederm light (385-515nm) for 60 seconds): satisfied the ASTM International passing criteria
ASTM International passing criteria (3 Log10 or 99.9% reduction) (with Synederm light (420-480nm) for 60 seconds): satisfied the ASTM International passing criteria

OO [0.3% Hydrogen Peroxide, hydrogen peroxide]
CFU/Carrier [1]: 8.3E+04 CFU/Carrier
Log10 Reduction Compared to Control [1]: 0.23 Log10
Percent Reduction Compared to Control [1]: 40.7%
CFU/Carrier [2]: 7.50E+04 CFU/Carrier
Log10 Reduction Compared to Control [2]: 0.27 Log10
Percent Reduction Compared to Control [2]: 46.4%
CFU/Carrier [3]: 1.20E+05 CFU/Carrier
Log10 Reduction Compared to Control [3]: 0.07 Log10
Percent Reduction Compared to Control [3]: 14.3%
CFU/Carrier [10]: 7.58E+4 CFU/Carrier
Log10 Reduction Compared to Control [10]: 0.59 Log10
Percent Reduction Compared to Control [10]: 74.4%
CFU/Carrier [11]: 3.66E+04 CFU/Carrier
Log10 Reduction Compared to Control [11]: 0.91 Log10
Percent Reduction Compared to Control [11]: 87.7%
CFU/Carrier [12]: 9.10E+03 CFU/Carrier
Log10 Reduction Compared to Control [12]: 1.51 Log10
Percent Reduction Compared to Control [12]: 96.9%
CFU/Carrier [13]: 1.30E+05 CFU/Carrier
Log10 Reduction Compared to Control [13]: 0.36 Log10
Percent Reduction Compared to Control [13]: 56.2%
CFU/Carrier [14]: 1.30E+05 CFU/Carrier
Log10 Reduction Compared to Control [14]: 0.36 Log10
Percent Reduction Compared to Control [14]: 56.3%
CFU/Carrier [15]: 2.28E+04 CFU/Carrier
Log10 Reduction Compared to Control [15]: 1.11 Log10
Percent Reduction Compared to Control [15]: 92.3%

Source: US10293148B2, “System, retainer and method of preventing and treating nosocomial infections including methicillin-resistant Staphylococcus aureus infections” (priority 2017, dated 2019)
